Measured values: patent EP1568770A2, “Pharmaceutical use of compounds which bind to a mammalian "trace amine" receptor” (priority 2000, dated 2002)
“Also recorded” adds a separate entry of the source. Like-named read-outs stand apart in the source and are kept apart here.

Assays:
[1] = biological target: T1, rat trace amine receptor (Rattus norvegicus, UniProt Q923Y9); experiment: cell-based; format: cell-based; settings: for Emax: HEK293, percent of stimulation by p-tyramine, read-out: Maximal Stimulation (%±SEM)
T1 construct: HEK293 cells stably transfected with the pcDNA3.1/V5/His-TOPO expression vector containing the full-length rat cDNA clone described above; expressed in transfected cells
T1 sequence (Q923Y9 whole entry): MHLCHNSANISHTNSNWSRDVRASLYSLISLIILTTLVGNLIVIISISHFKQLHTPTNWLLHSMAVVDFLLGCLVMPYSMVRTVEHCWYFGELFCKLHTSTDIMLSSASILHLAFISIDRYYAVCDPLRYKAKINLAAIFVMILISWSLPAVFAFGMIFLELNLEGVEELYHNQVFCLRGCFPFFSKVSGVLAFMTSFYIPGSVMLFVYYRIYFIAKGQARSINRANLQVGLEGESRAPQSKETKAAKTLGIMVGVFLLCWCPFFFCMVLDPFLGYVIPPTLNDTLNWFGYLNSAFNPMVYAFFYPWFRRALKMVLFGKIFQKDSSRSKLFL

[2] = tested on: human trace amine receptor; format: cell-based; settings: luciferase reporter; HEK 293 cells transfected with H2-3pcDNA3.1
[3] = tested on: HEK 293 cells; format: cell-based, human; settings: luciferase reporter; control cells transfected with pcDNA3.1
Source text: Control cells were transfected with pcDNA3.1 without the rat trace amine receptor sequences. All cells were also co-transfected with 2 additional constructs: one (elk-gal) that encoded the yeast transcription factor gal under the transcriptional control of an Elk-responsive promoter; and another encoding firefly luciferase under the transcriptional control of a gal-responsive promoter. […]

[4] = Table III, cAMP, 1 hour at 37°C, 100 µM IBMX, read-out: EC50 (nM±SEM)
[5] = untitled table after Table III, DRUGS, read-out: EC50

Structure (SMILES)	activation of the trace amine receptor / cAMP production, in words [1]	further results
CCNC(C)Cc1ccccc1 (racemic) [(±)N-ethylamphetamine]	substantially lower activities	–
CCNC(C)Cc1cccc(C(F)(F)F)c1 (racemic) [(±)fenfluramine]	substantially lower activities	–
CNC(C)Cc1ccc2c(c1)OCO2 (racemic) [MDMA]	potently stimulated cAMP production	Emax ([1]; Table III): 65 ± 13%; EC50 [1, 4]: 1750 ± 1150 nM; EC50 [1, 5]: 179 nM
COc1cc(CC(C)N)c(OC)cc1I (stereo not drawn) [2-amino,(1-[2,5-dimethoxy-4-iodophenyl]propane]	activate the receptor	–
COc1cc(CCN)ccc1O [3-methoxytyramine]	efficacious activators	activation of the trace amine receptor / cAMP production, in words ([1]; listed as 3-MT): potent and efficacious agonist
CC(N)Cc1ccc(O)cc1 (stereo not drawn) [4-hydroxyamphetamine, α-methyl-p-tyramine]	most potent agonist	Emax ([1]; Table III): 79 ± 2%; EC50 [1, 4]: 51 ± 12 nM
NC1CCc2cc(O)c(O)cc2C1 (stereo not drawn) [ADTN67]	–	fold stimulation for each potential ligand compared with cells incubated in the absence of the ligand, H2-3 pcDNA3.1 [2]: 1.93 fold; fold stimulation for each potential ligand compared with cells incubated in the absence of the ligand, pcDNA3.1 [3]: 0.78 fold
CC(C)C[C@H]1C(=O)N2CCC[C@H]2[C@]2(O)O[C@](NC(=O)[C@@H]3C=C4c5cccc6[nH]c(Br)c(c56)C[C@H]4N(C)C3)(C(C)C)C(=O)N12 [Bromocryptine, bromocriptine]	potently activate	–
CCN(CC)C(=O)[C@@H]1C=C2c3cccc4[nH]cc(c34)C[C@H]2N(C)C1 [D-LSD]	potently activate	–
C[C@@H](CO)NC(=O)[C@@H]1C=C2c3cccc4[nH]cc(c34)C[C@H]2N(C)C1 [Ergotmetrine, ergometrine]	potently activate	–
NCCCC(=O)O [GABA]	not activated	–
CN1CC=C(c2ccccc2)CC1 [MPTP, 1-methyl-4-phenyl-1,2,3,6-tetrahydropyridine]	stimulate camp production	Emax ([1]; Table III): 93 ± 7%
NC[C@H](O)c1ccc(O)c(O)c1 [Norepinephrine]	–	fold stimulation for each potential ligand compared with cells incubated in the absence of the ligand, H2-3 pcDNA3.1 [2]: 1.69 fold; fold stimulation for each potential ligand compared with cells incubated in the absence of the ligand, pcDNA3.1 [3]: 1.3 fold
NCC(O)c1ccc(O)cc1 (stereo not drawn) [Octopamine]	–	Emax ([1]; Table III): 102 ± 3%; EC50 ([1]; read-out: EC50 (nM±SEM)): 1300 ± 350 nM
NCCc1ccccc1 [Phenethylamine, β-phenethylamine]	–	Emax ([1]; Table III): 76 ± 16%
Cc1ccc(N(CC2=NCCN2)c2cccc(O)c2)cc1 [Phentolamine]	stimulate camp production	–
C[C@@H](N)Cc1ccc(O)cc1 [R-OH amphetamine]	–	EC50 [1, 5]: 11.3 nM
CN[C@H](C)Cc1ccccc1 [R-methamphetamine]	–	EC50 [1, 5]: 236 nM

Structure (SMILES)	activation of the trace amine receptor / cAMP production, in words [1]	further results
C=CCN1CCc2c(cc(O)c(O)c2Cl)C(c2ccccc2)C1 (stereo not drawn) [SKF82958]	–	fold stimulation for each potential ligand compared with cells incubated in the absence of the ligand, H2-3 pcDNA3.1 [2]: 2.52 fold
NCCc1c[nH]c2ccc(O)cc12 [Serotonin, 5-hydroxytryptamine]	–	Emax ([1]; Table III): 47 ± 9%; fold stimulation for each potential ligand compared with cells incubated in the absence of the ligand, pcDNA3.1 [3]: 1 fold
CNCC(O)c1ccc(O)cc1 (stereo not drawn) [Synephrine]	–	Emax ([1]; Table III): 90 ± 2%
c1ccc(CC2=NCCN2)cc1 [Tolazoline]	stimulate camp production	–
NCCc1c[nH]c2ccccc12 [Tryptamine]	–	Emax ([1]; Table III): 90 ± 6%; EC50 [1, 4]: 309 ± 76 nM
CN(C)CCCN1c2ccccc2Sc2ccc(Cl)cc21 [chlorpromazine]	weak agonist	–
CN1C[C@H](C(=O)N[C@]2(C)O[C@@]3(O)[C@@H]4CCCN4C(=O)[C@H](Cc4ccccc4)N3C2=O)C[C@@H]2c3cccc4[nH]cc(c34)C[C@H]21 [dihydroergotamine]	potently activate; also recorded: stimulate camp production	–
NCCc1c[nH]cn1 [histamine]	not activated	–
COc1cc(CC(=O)O)ccc1O [homovanillic acid, 3-methoxy-4-hydroxyphenylacetic acid]	no detectible activity	–
NCCc1cccc(O)c1 [m-tyramine]	–	Emax ([1]; Table III): 74 ± 3%
CNCC(O)c1ccc(O)c(OC)c1 (stereo not drawn) [metanephrine, 3-methoxy-β-4-dihydroxy-N-methyl-β-phenethylamine]	efficacious activators	–
CN1C[C@H](CNC(=O)OCc2ccccc2)C[C@@H]2c3cccc4c3c(cn4C)C[C@H]21 [metergoline]	stimulate camp production	–
CN[C@@H](C)Cc1ccccc1 [methamphetamine]	potently stimulated cAMP production	–
CN1CC[C@]23c4c5ccc(O)c4O[C@H]2[C@@H](O)C=C[C@H]3[C@H]1C5 [morphine]	not activated	–
CN1CCCC1c1cccnc1 (stereo not drawn) [nicotine]	not activated	–
CN1Cc2c(N)cccc2C(c2ccccc2)C1 (stereo not drawn) [nomifensine]	stimulate camp production	–
COc1cc(C(O)CN)ccc1O (stereo not drawn) [normetanephrine, 3-methoxy-β-4-dihydroxy-β-phenethlamine]	efficacious activators	–
NCCc1ccc(O)cc1 [p-tyramine]	–	EC50 ([1]; read-out: EC50 (nM±SEM)): 69 ± 9 nM
